Test results published in the supplement of paper PMC10307832.

Columns and labels:
Assay in all cases: relative viability (nuclei count vs DMSO), 5 days (fraction); higher = more cells survive
Palbociclib = compound: CC(=O)c1c(C)c2cnc(Nc3ccc(N4CCNCC4)cn3)nc2n(C2CCCC2)c1=O [Palbociclib]
Method in brief: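 Lung cancer cell lines received five library-drug doses (not always all listed) spaced by √10, pinned on vehicle-anchored 1536-well plates after an overnight stay at 37 °C. Five days later, with no medium change, nuclei were Hoechst-stained, imaged at 4× and counted with MetaXpress. Viability is treated-well nuclei relative to vehicle-well nuclei, as a median across plates. Passing plates had control CV below 25% and at least one doubling.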

Palbociclib + Tozasertib = compound: CC(=O)c1c(C)c2cnc(Nc3ccc(N4CCNCC4)cn3)nc2n(C2CCCC2)c1=O [Palbociclib] + Cc1cc(Nc2cc(N3CCN(C)CC3)nc(Sc3ccc(NC(=O)C4CC4)cc3)n2)n[nH]1 [Tozasertib] (partner 0.1 µM)
Method in brief: (§1)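 Medians of duplicate plates are given as relative viability. That measure is the nuclei count in treated wells divided by the count in vehicle wells. Counts were taken on 4× images of lung cancer cell lines in 1536-well plates, 5 days after pin-tool dosing the day after seeding with one drug alone or a fixed anchor-drug dose plus five library-drug doses (not always all listed) in √10 steps.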

Palbociclib + Phenformin = compound: CC(=O)c1c(C)c2cnc(Nc3ccc(N4CCNCC4)cn3)nc2n(C2CCCC2)c1=O [Palbociclib] + N=C(N)NC(=N)NCCc1ccccc1 [Phenformin] (partner 250 µM)
Method in brief: as §1

Palbociclib + Trametinib = compound: CC(=O)c1c(C)c2cnc(Nc3ccc(N4CCNCC4)cn3)nc2n(C2CCCC2)c1=O [Palbociclib] + CC(=O)Nc1cccc(-n2c(=O)n(C3CC3)c(=O)c3c(Nc4ccc(I)cc4F)n(C)c(=O)c(C)c32)c1 [Trametinib] (partner 0.02 µM)
Method in brief: as §1

Palbociclib + Foretinib = compound: CC(=O)c1c(C)c2cnc(Nc3ccc(N4CCNCC4)cn3)nc2n(C2CCCC2)c1=O [Palbociclib] + COc1cc2c(Oc3ccc(NC(=O)C4(C(=O)Nc5ccc(F)cc5)CC4)cc3F)ccnc2cc1OCCCN1CCOCC1 [Foretinib] (partner 0.25 µM)
Method in brief: as §1

Palbociclib + Pemetrexed = compound: CC(=O)c1c(C)c2cnc(Nc3ccc(N4CCNCC4)cn3)nc2n(C2CCCC2)c1=O [Palbociclib] + Nc1nc2[nH]cc(CCc3ccc(C(=O)N[C@@H](CCC(=O)O)C(=O)O)cc3)c2c(=O)[nH]1 [Pemetrexed] (partner 0.2 µM)
Method in brief: as §1

Palbociclib + Dasatinib = compound: CC(=O)c1c(C)c2cnc(Nc3ccc(N4CCNCC4)cn3)nc2n(C2CCCC2)c1=O [Palbociclib] + Cc1nc(Nc2ncc(C(=O)Nc3c(C)cccc3Cl)s2)cc(N2CCN(CCO)CC2)n1 [Dasatinib] (partner 0.075 µM)
Method in brief: as §1

Palbociclib + Vorinostat = compound: CC(=O)c1c(C)c2cnc(Nc3ccc(N4CCNCC4)cn3)nc2n(C2CCCC2)c1=O [Palbociclib] + O=C(CCCCCCC(=O)Nc1ccccc1)NO [Vorinostat] (partner 1 µM)
Method in brief: as §1

Palbociclib + Olaparib = compound: CC(=O)c1c(C)c2cnc(Nc3ccc(N4CCNCC4)cn3)nc2n(C2CCCC2)c1=O [Palbociclib] + O=C(c1cc(Cc2n[nH]c(=O)c3ccccc23)ccc1F)N1CCN(C(=O)C2CC2)CC1 [Olaparib] (partner 8 µM)
Method in brief: as §1

Palbociclib + Luminespib = compound: CC(=O)c1c(C)c2cnc(Nc3ccc(N4CCNCC4)cn3)nc2n(C2CCCC2)c1=O [Palbociclib] + CCNC(=O)c1noc(-c2cc(C(C)C)c(O)cc2O)c1-c1ccc(CN2CCOCC2)cc1 [Luminespib] (partner 0.01 µM)
Method in brief: as §1

Palbociclib + AZD7762 = compound: CC(=O)c1c(C)c2cnc(Nc3ccc(N4CCNCC4)cn3)nc2n(C2CCCC2)c1=O [Palbociclib] + NC(=O)Nc1cc(-c2cccc(F)c2)sc1C(=O)N[C@H]1CCCNC1 [AZD7762] (partner 0.2 µM)
Method in brief: as §1

Palbociclib + OSI-027 = compound: CC(=O)c1c(C)c2cnc(Nc3ccc(N4CCNCC4)cn3)nc2n(C2CCCC2)c1=O [Palbociclib] + COc1cccc2cc(-c3nc([C@H]4CC[C@H](C(=O)O)CC4)n4ncnc(N)c34)[nH]c12 [OSI-027] (partner 0.5 µM)
Method in brief: as §1

Palbociclib + Decitabine = compound: CC(=O)c1c(C)c2cnc(Nc3ccc(N4CCNCC4)cn3)nc2n(C2CCCC2)c1=O [Palbociclib] + Nc1ncn([C@H]2C[C@H](O)[C@@H](CO)O2)c(=O)n1 [Decitabine] (partner 2 µM)
Method in brief: as §1

Question: What does the source list for SW 900?
Answer: relative viability (Palbociclib; 0.01 µM): 1.01; relative viability (Palbociclib; 0.1 µM): 0.768; relative viability (Palbociclib; 0.3162 µM): 0.565; relative viability (Palbociclib; 0.5 µM, anchor plate): 0.565; relative viability (Palbociclib; 1 µM): 0.541; relative viability (Palbociclib + Tozasertib; first compound 0.01 µM): 0.557; relative viability (Palbociclib + Tozasertib; first compound 0.1 µM): 0.461; relative viability (Palbociclib + Tozasertib; first compound 0.3162 µM): 0.417; relative viability (Palbociclib + Tozasertib; first compound 1 µM): 0.506; relative viability (Palbociclib + Phenformin; first compound 0.01 µM): 0.632; relative viability (Palbociclib + Phenformin; first compound 0.1 µM): 0.435; relative viability (Palbociclib + Phenformin; first compound 0.3162 µM): 0.448; relative viability (Palbociclib + Phenformin; first compound 1 µM): 0.298; relative viability (Palbociclib + Trametinib; first compound 0.01 µM): 0.828; relative viability (Palbociclib + Trametinib; first compound 0.1 µM): 1.12; relative viability (Palbociclib + Trametinib; first compound 0.3162 µM): 0.616; relative viability (Palbociclib + Trametinib; first compound 1 µM): 0.509; relative viability (Palbociclib + Foretinib; first compound 0.01 µM): 0.902; relative viability (Palbociclib + Foretinib; first compound 0.1 µM): 0.844; relative viability (Palbociclib + Foretinib; first compound 0.3162 µM): 0.649; relative viability (Palbociclib + Foretinib; first compound 1 µM): 0.625; relative viability (Palbociclib + Pemetrexed; first compound 0.01 µM): 0.46; relative viability (Palbociclib + Pemetrexed; first compound 0.1 µM): 0.528; relative viability (Palbociclib + Pemetrexed; first compound 0.3162 µM): 0.51; relative viability (Palbociclib + Pemetrexed; first compound 1 µM): 0.422; relative viability (Palbociclib + Dasatinib; first compound 0.01 µM): 0.641; relative viability (Palbociclib + Dasatinib; first compound 0.1 µM): 0.543; relative viability (Palbociclib + Dasatinib; first compound 0.3162 µM): 0.479; relative viability (Palbociclib + Dasatinib; first compound 1 µM): 0.46; relative viability (Palbociclib + Vorinostat; first compound 0.01 µM): 0.524; relative viability (Palbociclib + Vorinostat; first compound 0.1 µM): 0.385; relative viability (Palbociclib + Vorinostat; first compound 0.3162 µM): 0.415; relative viability (Palbociclib + Vorinostat; first compound 1 µM): 0.389; relative viability (Palbociclib + Olaparib; first compound 0.01 µM): 0.914; relative viability (Palbociclib + Olaparib; first compound 0.1 µM): 0.975; relative viability (Palbociclib + Olaparib; first compound 0.3162 µM): 0.865; relative viability (Palbociclib + Olaparib; first compound 1 µM): 0.725; relative viability (Palbociclib + Luminespib; first compound 0.01 µM): 0.198; relative viability (Palbociclib + Luminespib; first compound 0.1 µM): 0.163; relative viability (Palbociclib + Luminespib; first compound 0.3162 µM): 0.182; relative viability (Palbociclib + Luminespib; first compound 1 µM): 0.171; relative viability (Palbociclib + AZD7762; first compound 0.01 µM): 0.67; relative viability (Palbociclib + AZD7762; first compound 0.1 µM): 0.641; relative viability (Palbociclib + AZD7762; first compound 0.3162 µM): 0.644; relative viability (Palbociclib + AZD7762; first compound 1 µM): 0.46; relative viability (Palbociclib + OSI-027; first compound 0.01 µM): 0.582; relative viability (Palbociclib + OSI-027; first compound 0.1 µM): 0.399; relative viability (Palbociclib + OSI-027; first compound 0.3162 µM): 0.322; relative viability (Palbociclib + OSI-027; first compound 1 µM): 0.358; relative viability (Palbociclib + Decitabine; first compound 0.01 µM): 0.393; relative viability (Palbociclib + Decitabine; first compound 0.1 µM): 0.475; relative viability (Palbociclib + Decitabine; first compound 0.3162 µM): 0.478; relative viability (Palbociclib + Decitabine; first compound 1 µM): 0.484
